pEC50: −log10 of the molar value. The source made the active and inactive calls. The rule behind the calls is not given here.
Key:
[1] = target: Glucagon receptor (Homo sapiens) (UniProt P47871); assay: Agonist activity at human GCGR expressed in HEK293 cells after 5 hrs by luciferase reporter gene assay; type: cell-based
[2] = target: T1, Glucagon-like peptide 2 receptor (Homo sapiens, UniProt O95838); assay: Agonist activity at human GLP2R expressed in HEK293 cells after 5 hrs by luciferase reporter gene assay; type: cell-based
T1 sequence (O95838 whole entry): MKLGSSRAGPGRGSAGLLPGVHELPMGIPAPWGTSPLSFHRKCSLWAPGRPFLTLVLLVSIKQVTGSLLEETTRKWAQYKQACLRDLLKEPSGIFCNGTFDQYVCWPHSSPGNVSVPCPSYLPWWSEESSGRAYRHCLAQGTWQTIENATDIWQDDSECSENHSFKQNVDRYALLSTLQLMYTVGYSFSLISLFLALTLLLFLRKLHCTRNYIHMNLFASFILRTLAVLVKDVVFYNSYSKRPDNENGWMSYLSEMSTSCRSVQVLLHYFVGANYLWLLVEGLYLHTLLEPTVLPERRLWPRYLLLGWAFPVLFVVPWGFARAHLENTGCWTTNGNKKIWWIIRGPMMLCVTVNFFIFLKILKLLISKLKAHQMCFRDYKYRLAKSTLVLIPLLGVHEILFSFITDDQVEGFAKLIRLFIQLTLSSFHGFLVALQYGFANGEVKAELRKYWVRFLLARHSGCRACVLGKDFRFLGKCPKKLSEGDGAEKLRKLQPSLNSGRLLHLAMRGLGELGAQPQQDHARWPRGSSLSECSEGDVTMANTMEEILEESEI

[3] = tested on: HEK293; assay: Selectivity ratio of EC50 for human GLP1R expressed in HEK293 cells to EC50 for human GLP2R expressed in HEK293; type: cell-based
[4] = Systemic clearance in Sprague-Dawley rat at 0.2 mg/kg, iv through cassette dosing measured up to 300 mins by LC/MS/MS analysis; type: ADME, organism-based; conditions: in vivo
[5] = target: Glucagon-like peptide 1 receptor (Homo sapiens, UniProt P43220); assay: Agonist activity at human GLP1R expressed in HEK293 cells after 5 hrs by luciferase reporter gene assay; type: cell-based
[6] = target: T2, Glucagon-like peptide 2 receptor (Homo sapiens) (UniProt O95838); assay: Potency index, ratio of compound EC50 to compound 2 EC50 for human GLP2R expressed in HEK293 cells; type: cell-based
T2 sequence (whole entry): T1 sequence (O95838 whole entry)

Glucagon-like peptide 1 receptor, sequence (P43220 whole entry): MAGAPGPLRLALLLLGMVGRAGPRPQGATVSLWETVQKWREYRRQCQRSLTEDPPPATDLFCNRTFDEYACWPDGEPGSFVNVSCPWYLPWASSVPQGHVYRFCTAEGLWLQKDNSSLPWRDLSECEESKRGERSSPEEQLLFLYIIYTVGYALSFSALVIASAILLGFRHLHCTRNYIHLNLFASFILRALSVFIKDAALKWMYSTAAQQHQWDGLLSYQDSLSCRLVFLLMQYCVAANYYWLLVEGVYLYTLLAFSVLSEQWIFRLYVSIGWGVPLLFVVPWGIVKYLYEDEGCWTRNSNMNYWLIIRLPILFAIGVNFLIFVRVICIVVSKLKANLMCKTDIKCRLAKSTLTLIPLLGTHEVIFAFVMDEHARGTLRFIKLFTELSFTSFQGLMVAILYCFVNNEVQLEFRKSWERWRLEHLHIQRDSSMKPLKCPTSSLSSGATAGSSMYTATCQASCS
Glucagon receptor (Homo sapiens), sequence (P47871 whole entry): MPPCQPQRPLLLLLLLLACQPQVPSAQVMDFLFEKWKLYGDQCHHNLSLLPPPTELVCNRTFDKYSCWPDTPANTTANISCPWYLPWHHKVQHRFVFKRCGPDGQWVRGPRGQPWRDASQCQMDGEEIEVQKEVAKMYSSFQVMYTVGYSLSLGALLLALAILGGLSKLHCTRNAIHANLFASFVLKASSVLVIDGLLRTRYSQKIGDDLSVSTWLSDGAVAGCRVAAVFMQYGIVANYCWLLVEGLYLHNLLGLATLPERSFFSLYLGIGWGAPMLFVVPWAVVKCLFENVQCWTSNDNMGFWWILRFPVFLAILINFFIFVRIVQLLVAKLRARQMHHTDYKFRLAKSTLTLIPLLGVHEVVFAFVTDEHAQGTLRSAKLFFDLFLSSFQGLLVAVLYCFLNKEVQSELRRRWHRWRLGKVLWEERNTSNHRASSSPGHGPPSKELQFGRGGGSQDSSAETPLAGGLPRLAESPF

| Activity [1] | pEC50 [2] | clearance [4] [mL/min/kg] | pEC50 [5] | Ratio EC50 [6] | Compound | Ratio EC50 [3] |
| --- | --- | --- | --- | --- | --- | --- |
| inactive | 9.70 | 0.73 | < 6.00 | – | CCCCC(NC(=O)[C@H](CCC(=O)O)NC(=O)[C@H](CC(=O)O)NC(=O)[C@H](CO)NC(=O)[C@H](Cc1ccccc1)NC(=O)[C@H](CO)NC(=O)CNC(=O)[C@H](CC(=O)O)NC(=O)CNC(=O)[C@@H](N)Cc1cnc[nH]1)C(=O)N[C@H](Cc1cnc[nH]1)C(=O)N[C@H](C(=O)N[C@H](C(=O)N[C@@H](CC(C)C)C(=O)N[C@@H](CC(=O)O)C(=O)N[C@@H](CC(N)=O)C(=O)N[C@@H](CC(C)C)C(=O)N[C@@H](C)C(=O)N[C@@H](C)C(=O)N[C@@H](CCCNC(=N)N)C(=O)N[C@@H](CC(=O)O)C(=O)N[C@@H](Cc1ccccc1)C(=O)N[C@H](C(=O)N[C@@H](CC(N)=O)C(=O)N[C@@H](Cc1c[nH]c2ccccc12)C(=O)N[C@@H](CC(C)C)C(=O)N[C@H](C(=O)N[C@@H](CCC(N)=O)C(=O)N[C@H](C(=O)N[C@@H](CCCCN)C(N)=O)[C@@H](C)O)[C@@H](C)CC)[C@@H](C)CC)[C@@H](C)CC)[C@@H](C)O (stereo partly drawn) | > 5000 |
| inactive | 9.18 | 9.7 | < 6.00 | – | CCCCC(NC(=O)[C@H](CCC(=O)O)NC(=O)[C@H](CC(=O)O)NC(=O)[C@H](CO)NC(=O)[C@H](Cc1ccccc1)NC(=O)[C@H](CO)NC(=O)CNC(=O)[C@H](CC(=O)O)NC(=O)CNC(=O)[C@@H](N)Cc1cnc[nH]1)C(=O)N[C@H](CCN)C(=O)N[C@H](C(=O)N[C@H](C(=O)N[C@@H](CC(C)C)C(=O)N[C@@H](CC(=O)O)C(=O)N[C@@H](CC(N)=O)C(=O)N[C@@H](CC(C)C)C(=O)N[C@@H](C)C(=O)N[C@@H](C)C(=O)N[C@@H](CCCNC(=N)N)C(=O)N[C@@H](CC(=O)O)C(=O)N[C@@H](Cc1ccccc1)C(=O)N[C@H](C(=O)N[C@@H](CC(N)=O)C(=O)N[C@@H](Cc1c[nH]c2ccccc12)C(=O)N[C@@H](CC(C)C)C(=O)N[C@H](C(=O)N[C@@H](CCC(N)=O)C(=O)N[C@H](C(=O)N[C@@H](CCCCN)C(N)=O)[C@@H](C)O)[C@@H](C)CC)[C@@H](C)CC)[C@@H](C)CC)[C@@H](C)O (stereo partly drawn) | > 1500 |
| – | < 7.52 | – | < 6.00 | > 330 | H-HGDGSFSDEMNTILDNLAARDFINW-NH2 | – |
| – | 8.96 | – | < 6.00 | 12 | H-HGDGSFSDEMNTILDNLAARDFINWLIQ-NH2 | > 900 |
| – | 9.20 | – | < 6.00 | 7 | H-HGDGSFSDEMNTILDNLAARDFINWLIQT-NH2 | > 1500 |
| – | 9.54 | – | < 6.00 | 3.2 | H-HGDGSFSDEMNTILDNLAARDFINWLIQTKIT-NH2 | > 3400 |
| – | 10.40 | 0.49 | 6.89 | – | CCCCC(NC(=O)[C@H](CCC(=O)O)NC(=O)[C@H](CC(=O)O)NC(=O)[C@H](CO)NC(=O)[C@H](Cc1ccccc1)NC(=O)[C@H](CO)NC(=O)CNC(=O)[C@H](CC(=O)O)NC(=O)CNC(=O)[C@@H](N)Cc1cnc[nH]1)C(=O)N[C@H](Cc1ccccc1)C(=O)N[C@H](C(=O)N[C@H](C(=O)N[C@@H](CC(C)C)C(=O)N[C@@H](CC(=O)O)C(=O)N[C@@H](CC(C)C)C(=O)N[C@@H](CC(C)C)C(=O)N[C@@H](C)C(=O)N[C@H](C(=O)N[C@@H](CCCNC(=N)N)C(=O)N[C@@H](CC(=O)O)C(=O)N[C@@H](Cc1ccccc1)C(=O)N[C@H](C(=O)N[C@@H](CC(N)=O)C(=O)N[C@@H](Cc1c[nH]c2ccccc12)C(=O)N[C@@H](CC(C)C)C(=O)N[C@H](C(=O)N[C@@H](CCC(N)=O)C(=O)N[C@H](C(=O)N[C@@H](CCCCN)C(N)=O)[C@@H](C)O)[C@@H](C)CC)[C@@H](C)CC)[C@@H](C)O)[C@@H](C)CC)[C@@H](C)O (stereo partly drawn) | 3200 |
| – | 8.96 | – | < 6.00 | 12 | H-HGDGSFSDEMNTILDNLAARDFINWLI-NH2 | > 900 |
| – | 10.10 | 0.33 | < 6.00 | – | CCCCC(NC(=O)[C@H](CCC(=O)O)NC(=O)[C@H](CC(=O)O)NC(=O)[C@H](CO)NC(=O)[C@H](Cc1ccccc1)NC(=O)[C@H](CO)NC(=O)CNC(=O)[C@H](CC(=O)O)NC(=O)CNC(=O)[C@@H](N)Cc1cnc[nH]1)C(=O)N[C@H](Cc1cccs1)C(=O)N[C@H](C(=O)N[C@H](C(=O)N[C@@H](CC(C)C)C(=O)N[C@@H](CC(=O)O)C(=O)N[C@@H](CC(C)C)C(=O)N[C@@H](CC(C)C)C(=O)N[C@@H](C)C(=O)N[C@@H](C)C(=O)N[C@@H](CCCNC(=N)N)C(=O)N[C@@H](CC(=O)O)C(=O)N[C@@H](Cc1ccccc1)C(=O)N[C@H](C(=O)N[C@@H](CC(N)=O)C(=O)N[C@@H](Cc1c[nH]c2ccccc12)C(=O)N[C@@H](CC(C)C)C(=O)N[C@H](C(=O)N[C@@H](CCC(N)=O)C(=O)N[C@H](C(=O)N[C@@H](CCCCN)C(N)=O)[C@@H](C)O)[C@@H](C)CC)[C@@H](C)CC)[C@@H](C)CC)[C@@H](C)O (stereo partly drawn) | > 12000 |
| – | 9.89 | 0.12 | < 6.00 | – | CCCCC(NC(=O)[C@H](CCC(=O)O)NC(=O)[C@H](CC(=O)O)NC(=O)[C@H](CO)NC(=O)[C@H](Cc1ccccc1)NC(=O)[C@H](CO)NC(=O)CNC(=O)[C@H](CC(=O)O)NC(=O)CNC(=O)[C@@H](N)Cc1cnc[nH]1)C(=O)N[C@H](Cc1cccc(Cl)c1)C(=O)N[C@H](C(=O)N[C@H](C(=O)N[C@@H](CC(C)C)C(=O)N[C@@H](CC(=O)O)C(=O)N[C@@H](Cc1ccccc1)C(=O)N[C@@H](CC(C)C)C(=O)N[C@@H](C)C(=O)N[C@@H](C)C(=O)N[C@@H](CCCNC(=N)N)C(=O)N[C@@H](CC(=O)O)C(=O)N[C@@H](Cc1ccccc1)C(=O)N[C@H](C(=O)N[C@@H](CC(N)=O)C(=O)N[C@@H](Cc1c[nH]c2ccccc12)C(=O)N[C@@H](CC(C)C)C(=O)N[C@H](C(=O)N[C@@H](CCC(N)=O)C(=O)N[C@H](C(=O)N[C@@H](CCCCN)C(=O)N[C@H](C(=O)N[C@H](C(=O)N[C@@H](CC(=O)O)C(N)=O)[C@@H](C)O)[C@@H](C)CC)[C@@H](C)O)[C@@H](C)CC)[C@@H](C)CC)[C@@H](C)CC)[C@@H](C)O (stereo partly drawn) | > 7600 |
| – | 10.05 | 0.2 | < 6.00 | – | CCCCC(NC(=O)[C@H](CCC(=O)O)NC(=O)[C@H](CC(=O)O)NC(=O)[C@H](CO)NC(=O)[C@H](Cc1ccccc1)NC(=O)[C@H](CO)NC(=O)CNC(=O)[C@H](CC(=O)O)NC(=O)CNC(=O)[C@@H](N)Cc1cnc[nH]1)C(=O)N[C@H](Cc1cccc(Cl)c1)C(=O)N[C@H](C(=O)N[C@H](C(=O)N[C@@H](CC(C)C)C(=O)N[C@@H](CC(=O)O)C(=O)N[C@@H](CC(C)C)C(=O)N[C@@H](CC(C)C)C(=O)N[C@@H](C)C(=O)N[C@@H](C)C(=O)N[C@@H](CCCNC(=N)N)C(=O)N[C@@H](CC(=O)O)C(=O)N[C@@H](Cc1ccccc1)C(=O)N[C@H](C(=O)N[C@@H](CC(N)=O)C(=O)N[C@@H](Cc1c[nH]c2ccccc12)C(=O)N[C@@H](CC(C)C)C(=O)N[C@H](C(=O)N[C@@H](CCC(N)=O)C(=O)N[C@H](C(=O)N[C@@H](CCCCN)C(=O)N[C@H](C(=O)N[C@H](C(=O)N[C@@H](CC(=O)O)C(N)=O)[C@@H](C)O)[C@@H](C)CC)[C@@H](C)O)[C@@H](C)CC)[C@@H](C)CC)[C@@H](C)CC)[C@@H](C)O (stereo partly drawn) | > 11000 |
| – | 9.32 | – | < 6.00 | 5.3 | H-HGDGSFSDEMNTILDNLAARDFINWLIQTKI-NH2 | > 2000 |
| – | 10.05 | 0.3 | < 6.00 | – | CCCCC(NC(=O)[C@H](CCC(=O)O)NC(=O)[C@H](CC(=O)O)NC(=O)[C@H](CO)NC(=O)[C@H](Cc1ccccc1)NC(=O)[C@H](CO)NC(=O)CNC(=O)[C@H](CC(=O)O)NC(=O)CNC(=O)[C@@H](N)Cc1cnc[nH]1)C(=O)N[C@H](Cc1ccccc1)C(=O)N[C@H](C(=O)N[C@H](C(=O)N[C@@H](CC(C)C)C(=O)N[C@@H](CC(=O)O)C(=O)N[C@@H](Cc1ccccc1)C(=O)N[C@@H](CC(C)C)C(=O)N[C@@H](C)C(=O)N[C@@H](C)C(=O)N[C@@H](CCCNC(=N)N)C(=O)N[C@@H](CC(=O)O)C(=O)N[C@@H](Cc1ccccc1)C(=O)N[C@H](C(=O)N[C@@H](CC(N)=O)C(=O)N[C@@H](Cc1c[nH]c2ccccc12)C(=O)N[C@@H](CC(C)C)C(=O)N[C@H](C(=O)N[C@@H](CCC(N)=O)C(=O)N[C@H](C(=O)N[C@@H](CCCCN)C(N)=O)[C@@H](C)O)[C@@H](C)CC)[C@@H](C)CC)[C@@H](C)CC)[C@@H](C)O (stereo partly drawn) | > 11000 |

From ChEMBL document CHEMBL3822442, “Synthesis and Pharmacological Characterization of Novel Glucagon-like Peptide-2 (GLP-2) Analogues with Low Systemic Clearance” (J Med Chem, 2016)
